2 molecules from US20080242594A1, “Methods for Promoting Stem Cell Proliferation and Survival” (priority 2005, published 2008) can be followed below.

The subject of one experiment is STAT3. Kind of experiment: STAT3 phosphorylation (Ser727, Tyr705) immunoblot in CNS stem cells. It is filed as cell-based, mouse. The source says:
Ligands that activate JAK/STAT signaling promote astrocytic differentiation of CNS stem cells (Johe et al., Genes Dev 10:3129-40, 1996; Raj an et al., J Neurosci 18:3620-9, 1998; Bonni et al., Science 278:477-83, 1997; Song et al., Nat Neurosci 7:229-35, 2004; He et al., Nat Neurosci 8:616-625, 2005). When applying CNTF to CNS stem cells it was noted that low concentrations of CNTF stimulated survival but not expression of astrocyte specific genes. This is consistent with previous observations of Akt phosphorylation downstream of gp130 activation (Taga et al., Annu Rev Immunol 15:797-819, 1997). […] At high concentrations (20 ng/ml) the phosphorylation of Tyr705 can be blocked by an inhibitor of JAK while allowing a CNTF-induced increase in Ser727 phosphorylation (FIG. 2B) (Thompson et al., Bioorg Med Chem Lett 12:1219-23, 2002).
CNTF was used as a positive control; CNTF, induced the phosphorylation on both sites. With both CNTF and Notch activation, phosphorylation peaked at around 30 min. STAT3 phosphorylation on Ser727 following Notch activation was sensitive to the γ-secretase inhibitor DAPT (FIG. 2e). […] In contrast to CNTF, no Tyr705 phosphorylation was detected at any of the doses of Notch receptor ligands.
It was determined that insulin also maintains phosphorylation of serine 727 in STAT3 in foetal neural stem cell cultures.
Background: A western blot detects proteins with antibodies after separation by electrophoresis.

The next experiment deals with Hes3. Briefly: Hes3 expression (RT-PCR, immunohistochemistry) in CNS stem cells. It is filed as cell-based, mouse. The note with it: for Hes3 mRNA levels: CNTF 20 ng/ml. On the procedure:
RT-PCR: For reverse-transcriptase PCR analysis, RNA was extracted from cell cultures or brain homogenates with Trizol (Invitrogen, 15596-026), and PCR reactions were performed with the ProSTAR First-Strand RT-PCR Kit (Stratagene, 200420). Primers were used for the following genes: Hes1, Hes2, Hes3, Hes5, Hes6, Hey2; Hes7
Notch signaling regulates transcription of the Hes/Hey gene family, a group of genes implicated in the control of differentiation (Iso et al., J Cell Physiol 194:237-55, 2003). RT-PCR was used to assess mRNA regulation of these genes one hour after Notch activation in CNS stem cells. […] The ability of high concentrations of CNTF to inhibit Hes3 induction following Notch activation was dependent on JAK activity (FIG. 4e). In contrast, in the absence of added Notch ligand, Hes3 mRNA levels were elevated by high CNTF and the JAK inhibitor (FIG. 4e).
Conversely, treatment with ciliary neurotrophic factor (CNTF), a cytokine that opposes the signal transduction pathway downstream of Notch activation opposed the ability of D114 to induce Hes3 transcription. Immunohistochemical experiments were performed that documented D114, CNTF regulate Hes3 expression. Thus, at the protein expression level, D114 maintains and CNTF inhibits Hes3 expression.

The subject of another experiment is adult rat SVZ stem cells. Briefly: Adult SVZ stem cell plating efficiency and colony size. It is filed as cell-based. On the procedure: (§1) Cell culture: E13.5 cortical embryonic mouse and adult rat subventricular zone CNS stem cells were grown as previously described (Johe et al., Genes Dev 10:3129-40, 1996; Rajan et al., J Neurosci 18:3620-9, 1998). Cells were expanded in serum-free DMEM/F12 medium with N2 supplement with FGF2 (20 ng/ml) for 5 days and were re-plated at 1000-10,000 cells per cm^2. FGF2 was included throughout our experiments, unless otherwise stated.
Very little protein or mRNA were detected outside the SVZ (FIG. 4g). Adult CNS stem cells can be cultured as a monolayer in vitro (FIG. 4h) and they show similar responses to extracellular signals that regulate stem cell differentiation upon withdrawal of the mitogen that sustains the undifferentiated state (Johe et al., Genes Dev 10:3129-40, 1996). To ask if Notch activation promotes survival in rat adult SVZ cultures, isolated cells were grown in the presence of FGF2 with and without Delta-4 for one week. […] When FGF2 was withdrawn for a week, cells at clonal density generated all three CNS lineages (FIG. 8C, Table 4).

Experiment [1] concerns E13.5 cortical embryonic mouse CNS stem cells. Kind of experiment: CNS stem cell plating efficiency / colony formation / survival. It is filed as cell-based. The procedure:
as §1
To explore these paradoxical observations, CNS stem cell cultures from mid-gestation (embryonic day 13.5) mouse dorsal telencephalon were treated with soluble Notch ligands. […] Following initial passaging, the cells were plated at a density of 1000 cells/cm^2, cultured for 5 days in the presence of FGF2, and colony numbers, sizes, and BrdU incorporation (after a 4 hour BrdU pulse) were enumerated. Notch activation by Jagged-1 or Delta-4 (200 ng/ml) increased the number of colonies generated in vitro by over 3-fold (FIG. 1a). […] The effects of Notch activation were most dramatic when treatments were initiated at the start of the culture.
Insulin in the medium is also thought to promote cell survival. […] Seeding cells in the absence of insulin caused the plating efficiency measured at five days to drop to 29.9%±37.9 (FIG. 1e). Delta-4 was able to compensate for the lack of insulin in the medium, and restored plating efficiency (125%±19.4). Because Notch activation improved survival, activation of Akt, a ser/threonine kinase known to be involved in cell survival, was assayed. Notch activation rapidly (5 minutes) promoted the phosphorylation of Akt on Ser473 and […] in both the presence and absence of insulin (FIG. 1f).

A further experiment relates to mES (D3) cells. Kind of experiment: mES cell plating efficiency, Oct4 and STAT3 phosphorylation in the presence of LIF. It is filed as cell-based, mouse. The settings on record: for Oct4 expression: five day treatments in the presence of LIF; for cell survival in a plating efficiency assay: in the presence of LIF. The source says:
FIGS. 10a-10c are a set of images showing JAK inhibition reduces the phosphorylation of STAT3 on Ser727 in mES cell cultures. […] Very low levels of phosphorylated p38 were detectable under all conditions. […] Self-renewal of mES cells correlated with Ser727 phosphorylation.
mES (D3) cells were obtained from ATCC and were maintained in feeder-free cultures on gelatin-coated plates supplemented with 1400 units/ml LIF.
There is great interest in conditions that support the growth of mouse and human ES cells. In contrast to CNS SC (FIG. 2, FIG. 3) and hES SC (se below), the growth of undifferentiated mouse ES cells depends on the stimulation of the JAK/STAT pathway and STAT3 phosphorylation on Tyr705 has been specifically shown to be essential for self-renewal of mouse ES cells (Niwa et al., Genes Dev 12:2048-60, 1998; Matsuda et al., Embo J 18:4261-9, 1999). Ligands that stimulate the JAK/STAT pathway cause human ES cells to differentiate (Daheron et al., Stem Cells 22:770-8, 2004; Humphrey et al., Stem Cells 22:522-30, 2004). It was determined if the Notch/sSTAT survival pathway is present in mouse or human ES cells.

Setting [2] is: in the presence of FGF2 for one week.

On to `CC(C)(C)c1nc2c3ccc(F)cc3c3c(=O)[nH]ccc3c2[nH]1` [JAK Inhibitor, 2-(1,1-Dimethylethyl)-9-fluoro-3,6-dihydro-7H-benz[h]-imidaz[4,5-f]isoquinolin-7-one], for which the “effect on CNTF-induced STAT3 phosphorylation” value in the experiment on STAT3 (CNTF 20 ng/ml) is “selectively blocked Tyr705 but not Ser727 phosphorylation”. For the same molecule, the “Hes3 mRNA levels” value with Hes3 is “no effect on Hes3 mRNA”. Also, the “enhancement of plating efficiency” value in the experiment with adult rat SVZ stem cells was “approx. 40%”. The “CNS stem cell survival / plating efficiency” value in experiment [1] (5 days, versus FGF2 control, CNTF low 0.01, 0.1 ng/ml or high 20 ng/ml with JAK inhibitor) is listed as “increased survival”. Besides, the “STAT3 phosphorylation on Ser727 and Tyr705” value with mES (D3) cells (90 min) is recorded as “significant down-regulation”. In the experiment on mES (D3) cells, the Oct4 expression result is listed as “down-regulated Oct4” and the “cell survival in a plating efficiency assay” value is “reduced it”.

Turning to “Delta-4: soluble Notch ligand Delta-4 (1389-D4) from R&D”, the “concentration at which peak STAT3 phosphorylation was achieved” value in the experiment on STAT3 (dose response, Ser727) is approximately 1 ng/mL. The “Hes3 mRNA levels” value with Hes3 is reported as “increases its transcription”. For the same molecule, in the experiment with Hes3 (immunohistochemical), the “Hes3 expression at the protein expression level” value is “maintains”. Moreover, in the experiment on adult rat SVZ stem cells (setting [2]), the colony size is given as 278.5%±52.5 and the plating efficiency is listed as 1050%±273.8. Moreover, the plating efficiency in experiment [1] (absence of insulin in the medium, five days) is 125%±19.4. Further, in the experiment with mES (D3) cells, the Oct4 expression result is “did not affect Oct4 expression” and the “cell survival in a plating efficiency assay” value is recorded as “did not significantly alter cell survival”.
